# Results: paper PMC7596504, “Molecular mechanism of the MORC4 ATPase activation” (Nature Communications, 2020)
# “And” between values parts separate entries of the source, which are not always exact repeats. Equal values may be shown once.
# Columns and labels:
# MORC4 CW domain = molecular target: T1, MORC4 CW domain (Homo sapiens, UniProt Q8TE76); assay: Tryptophan fluorescence binding of histone H3 peptides to MORC4 CW; details: for Kd: tryptophan fluorescence, 25 °C, pH 6.8, 100 mM NaCl, excitation 295 nm, isolated CW
# T1 construct: The CW domain (aa 417–475) of MORC4 was cloned into a pGEX 6p-1 vector; GST (N, cleaved yes); made in house; host or cells: E. coli Rosetta2 (DE3) pLysS or BL21 (DE3) RIL
# T1 sequence (Q8TE76 417-475): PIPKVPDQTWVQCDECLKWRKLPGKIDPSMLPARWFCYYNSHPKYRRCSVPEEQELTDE
# Procedure: Spectra were recorded at 25 °C on a Fluoromax-3 spectrofluorometer (HORIBA). The samples containing 0.5–1 µM wild-type or mutated ATPaseCW or CW in 20 mM Tris pH 6.8, 100 mM NaCl, 2 mM DTT buffer and progressively increasing concentrations of the histone peptides were excited at 295 nm. Emission spectra were recorded between 320 and 360 nm with a 0.5 nm step size and a 0.5 s integration time and averaged over three scans. The Kd values were determined using a nonlinear least-squares analysis and the equation:1 ΔI=ΔImaxL+P+Kd−L+P+Kd^2−4PL/2P where [L] is the concentration of the histone peptide, [P] is the concentration of the protein, ΔI is the observed change of signal intensity, and ΔImax is the difference in signal intensity of the free and bound states of the protein. The Kd values were averaged over three separate experiments with the error calculated as the standard deviation between the runs.
# 601 DNA = assay: EMSA with 601 DNA; assay type: binding; details: for binding to 601 DNA: 147 bp 601 DNA 5 pmol, pH 7.5, 150 mM NaCl, 0.5 h on ice
# Procedure: EMSA experiments were performed essentially as described. In brief, increasing amounts of WT or mutant CW or ATPaseCW cassette of MORC4 were incubated with 147 bp 601 DNA (5 pmol) or 50 ng of O’RangeRuler 5 bp ladder (Thermo Scientific) in a DNA-binding buffer containing 20 mM Tris-HCl (pH 7.5), 150 mM NaCl, 2.5 mM MgCl2, and 2 mM DTT for 0.5 h on ice. The reaction mixtures were loaded on 5% native polyacrylamide gels, and electrophoresis was performed in 0.2× Tris-borate-EDTA (TBE) buffer at 100 V for 1.2 h on ice. Gels were stained with SYBR Gold (Invitrogen).
# NCP252 = assay: FRET, Gal4 titration into Cy3-Cy5 labeled NCP252; assay type: binding; details: for S1/2: mean of n = 3
# Procedure: Histone octamers unlabeled or labeled with Cy5 at H2AK119 were prepared as previously described. NCPs were reconstituted by combining octamer with 1.25× excess DNA and performing slow salt dialysis. Free DNA was then separated from fully reconstituted NCPs by sucrose gradient purification. NCPs for fluorescence polarization assays were reconstituted from unlabeled octamer and 207 bp DNA containing the 601 Widom sequence flanked with a 30 bp linker on either side and internally labeled with Fluorescein 27 bp in from the 5′ end. Cy3-Cy5 labeled NCPs for FRET assays were reconstituted with Cy5 labeled octamer plus either 147 bp 601 Widom DNA containing a LexA transcription factor binding site at bases 8–27[34], or 252 bp DNA containing the 601 Widom sequence with a 75 bp linker at the 3′ end, a 30 bp linker at the 5’ end, and a Gal4 transcription factor binding site at bases 8–26 in the 601 Widom sequence. The 147 bp LexA-binding DNA was labeled with Cy3 on the 5′ end, and the 252 bp Gal4-binding DNA was internally labeled with Cy3 34 bp in from the 5′ end.
# LexA was expressed in E. coli, separated from genomic DNA and the proteome by polyethyleneimine precipitation, and salted out with ammonium sulfate. LexA was resuspended in buffer A (20 mM potassium phosphate pH 7, 0.1 mM EDTA, 10% glycerol, 1 mM DTT) + 200 mM NaCl and purified by a linear gradient to A + 800 mM NaCl over either a cellulose phosphate or HiTrap Heparin HP column. Final LexA purification was performed on a hydroxyapatite column and dialyzed into 10 mM PIPES pH 7.0, 0.1 mM EDTA, 10% glycerol, and 200 mM NaCl for storage at −80 °C. The His-tagged DNA-binding domain (aa 1–147) of Gal4 was expressed in E. coli and purified from lysate by a linear gradient of buffer B (25 mM Tris pH 7.5, 200 mM NaCl, 0.2% Tween 20, 20 µM zinc acetate, 1 mM dithiothreitol, and 1 mM PMSF) + 10 mM imidazole to B + 200 mM imidazole over a Nickel-NTA column. Gal4 (1–147) was then further purified by a linear gradient of buffer C (25 mM Tris pH 7.5, 20 µM zinc acetate, 1 mM dithiothreitol, and 1 mM PMSF) + 200 mM NaCl to C + 800 mM NaCl over a Tosoh cation exchange column. Purified Gal4 (1–147) was then dialyzed into 10 mM HEPES pH 7.5, 200 mM NaCl, 10% glycerol, 20 µM zinc acetate, 1 mM DTT, and 1 mM PMSF for storage at −80 °C.
# Cy3-Cy5 NCP FRET efficiency measurements were carried out on a Horiba Scientific Fluoromax 4. Samples were excited at 510 and 610 nm and the photoluminescence spectra were collected from 530 to 750 nm and 630 to 750 nm for donor and acceptor excitations, respectively. Each wavelength was integrated for one second, and the excitation and emission slit width were set to 5 nm with 2 nm emission wavelength steps. FRET measurements were computed through the (ratio)A method. LexA titrations were carried out in 20 mM Tris pH 7.5, 75 mM NaCl, 10% glycerol, 0.00625% Tween 20 buffer with 5 nM 147 bp Cy3-Cy5 NCPs mixed in 20 µL reaction volumes and allowed to incubate for 5 mins at 4 °C before FRET of the sample was measured. To measure changes in accessibility of the NCP147 due to MORC4 ATPaseCW binding, LexA titrations were repeated in the presence of NCP binding saturating concentrations of MORC4 ATPaseCW. Gal4 (1–147) titrations were carried out in 10 mM Tris pH 8, 130 mM NaCl, 10% glycerol, 0.0075% Tween 20 buffer with 1 nM 252 bp Cy3-Cy5 nucleosomes mixed in 60 µL reaction volumes and allowed to incubate for 10 mins at room temperature before FRET of the sample was measured. […]
compound,measurement,setting,value
"CW: CW domain (aa 417–475) of MORC4 (PIPKVPDQTWVQCDECLKWRKLPGKIDPSMLPARWFCYYNSHPKYRRCSVPEEQELTDE; left off: GST, end not stated, cleaved)",higher binding affinity to H3K4me3 than other readers,"MORC4 CW domain; MORC4 CW vs other H3K4me3 readers (compared with ref [21],[22])",7–10 fold
same,binding to 601 DNA,601 DNA,indicating the direct interaction
"CWKRR: triple mutant of the MORC4 CW domain, K460A/R462A/R463A (PIPKVPDQTWVQCDECLKWRKLPGKIDPSMLPARWFCYYNSHPAYAACSVPEEQELTDE; left off: GST, end not stated, cleaved)",binding to 601 DNA,601 DNA,did not observe the 601 DNA band shift even at the DNA to CWKRR molar ratio of 1 to 200
Gal4: DNA-binding domain (aa 1–147) of transcription factor Gal4,S1/2,"NCP252; FRET efficiency reduced by 50%, without MORC4, 1 nM NCP252, pH 8, 130 mM NaCl, room temperature, 10 min",20 ± 4 nM and 20 nM
same,decrease in ability to bind NCP252,NCP252; MORC4 ATPaseCW with ATP vs no MORC4,~ 5 fold
same,decrease in ability to bind NCP252,NCP252; MORC4 ATPaseCW without ATP vs no MORC4,2 fold
same,S1/2,NCP252; in presence of MORC4 ATPaseCW with 0.3 mM ATP,100 ± 7 nM and 100 nM
same,S1/2,"NCP252; in presence of MORC4 ATPaseCW, without ATP",40 ± 5 nM and 40 nM
C[C@H](N)C(=O)N[C@@H](CCCNC(=N)N)C(=O)N[C@H](C(=O)N[C@@H](CCCC[N+](C)(C)C)C(=O)N[C@@H](CCC(N)=O)C(=O)N[C@H](C(=O)N[C@@H](C)C(=O)N[C@@H](CCCNC(=N)N)C(=O)N[C@@H](CCCCN)C(=O)N[C@@H](CO)C(=O)N[C@H](C(=O)NCC(=O)O)[C@@H](C)O)[C@@H](C)O)[C@@H](C)O [H3K4me3],Kd,MORC4 CW domain; mean of n = 3,112 nM
"Nc1ncnc2c1ncn2[C@@H]1O[C@H](COP(=O)(O)OP(=O)(O)NP(=O)(O)O)[C@@H](O)[C@H]1O [AMPPNP, adenylyl-imidodiphosphate, reference compound]",effect on binding of ATPaseCW to 601 DNA,601 DNA; added to ATPaseCW,increases binding to 601 DNA
C[C@H](N)C(=O)N[C@@H](CCCNC(=N)N)C(=O)N[C@H](C(=O)N[C@@H](CCCCN)C(=O)N[C@@H](CCC(N)=O)C(=O)N[C@H](C(=O)N[C@@H](C)C(=O)N[C@@H](CCCNC(=N)N)C(=O)N[C@@H](CCCCN)C(=O)N[C@@H](CO)C(=O)N[C@H](C(=O)NCC(=O)O)[C@@H](C)O)[C@@H](C)O)[C@@H](C)O [H3],Kd,MORC4 CW domain; mean ± S.D. of n = 3,2660 nM
